Results taken from US8835354B2, “Composition for controlling plant diseases and method for controlling plant diseases” (Sumitomo Chemical Company, Limited, priority 2008, dated 2014).

Key:
Assay type in all cases: in vivo
[1] = system: Rhizoctonia solani, pathogen of cucumber damping-off; test: Cucumber damping-off seed treatment test (Test Example 1); details: seventh day
Text: An acetone solution of compound (1b) and an acetone solution of tolclofos-methyl were mixed so as to prepare mixed liquids containing compound (1b) and tolclofos-methyl in predetermined concentration. These mixed liquids were used for smear treatment of cucumber (Sagamihanjiro) seeds using a rotary seed treatment machine (seed dresser, produced by Hans-Ulrich Hege GmbH) so as to obtain treated seeds. The treated seeds were left untouched overnight and then disseminated on the soil which filled a plastic pot and covered with the soil containing Rhizoctonia solani, pathogen of cucumber damping-off, which had been cultured on a bran medium. They were allowed to grow in a greenhouse while irrigated and the number of non-budding seeds was checked on the seventh day after the dissemination and the incidence of disease was calculated by Equation 3. The control value was calculated by Equation 1 based on the incidence of disease. The incidence of disease was also checked in the case in which the plants had not been treated with the agent in order to calculate the control value. […]
Generally, the control value expected for the case where the given two kinds of active ingredient compounds are mixed and used for the treatment, the so-called control value expectation is calculated from the following Colby's calculating equation. […]

[2] = system: Sclerotinia homeocarpa, pathogen of dollar spot of turfgrass; test: Turfgrass dollar spot foliage application test (Test Example 2); details: 14 days
Protocol: (§1) Control value=100(A−B)/A “Equation 1”
(§2) A: Incidence of disease of plant in untreated area
(§3) B: Incidence of disease of plant in treated area
(§4) Generally, the control value expected for the case where the given two kinds of active ingredient compounds are mixed and used for the treatment, the so-called control value expectation is calculated from the following Colby's calculating equation. E=X+Y−(X×Y)/100 “Equation 2”
(§5) X: Control value (%) when active ingredient compound A is used for treatment in M g per hectare or in M g per 100 kg of seeds
(§6) Y: Control value (%) when active ingredient compound B is used for treatment in N g per hectare or in N g per 100 kg of seeds
(§7) E: Control value (%) expected for the case where active ingredient compound A in M g per hectare or in M g per 100 kg of seeds and active ingredient compound B in N g per hectare or in N g per 100 kg of seeds are mixed and used for treatment (hereinbelow referred to as “control value expectation”) “Synergetic effect”=(Actual control value)×100/(Control value expectation) Incidence of disease=(Number of no budding seeds)×100/(Number of total disseminated seeds) “Equation 3”
A plastic pot was filled with sandy soil. Turfgrass (bentgrass penncross) was disseminated and allowed to grow in a green house for 3 weeks. A wettable powder of compound (1b) and a wettable powder of tolclofos-methyl (Grancer Wettable Powder manufactured by Nihon Green & Garden Corporation) were respectively diluted with water and then tank-mixed so as to prepare tank-mixed liquids containing compound (1b) and tolclofos-methyl in predetermined concentration. The tank-mixed liquids were subjected to foliage application such that they could be sufficiently adhered to the leaves of the aforementioned turfgrass. Thereafter, the plants were air-dried. After the plants were air-dried, Sclerotinia homeocarpa, pathogen of dollar spot of turfgrass, which had been cultured on a bran medium was sprayed on the plants to be treated from above. Then, the plants were placed in a greenhouse at 19° C. to 23° C. under high humidity for 14 days, and thereafter control effect was checked. The diseased area ratio of the pot plants on which the agents had been sprayed was determined as the incidence of disease at the time of checking and the control value calculated by Equation 1 based on the incidence of disease thus determined. In order to calculate the control value, the incidence of disease was also determined in the case in which the plants had not been treated with the agent.
As a comparison, the respective wettable powders described above were diluted with water in predetermined concentration so as to prepare a compound (1b) liquid and a tolclofos-methyl liquid respectively and they were subjected to similar tests.

[3] = system: Rhizoctonia solani, pathogen of brown patch of turfgrass; test: Turfgrass brown patch foliage application test (Test Example 3); details: 14 days
Protocol: as §1, §2, §3, §4, §5, §6, §7
A plastic pot was filled with sandy soil. Turfgrass (bentgrass penncross) was disseminated and allowed to grow in a green house for 3 weeks. A wettable powder of compound (1b) and a wettable powder of tolclofos-methyl (Grancer Wettable Powder manufactured by Nihon Green & Garden Corporation) were respectively diluted with water and then tank-mixed so as to prepare tank-mixed liquids containing compound (1b) and tolclofos-methyl in predetermined concentration. […] The diseased area ratio of the pot plants on which the agents had been sprayed was determined as the incidence of disease at the time of checking and the control value was calculated by Equation 1 based on the incidence of disease thus determined. In order to calculate the control value, the incidence of disease was also determined in the case in which the plants had not been treated with the agent. […]

[4] = system: Pythium irregulare, pathogen of cucumber damping-off; test: Cucumber damping-off seed treatment test with metalaxyl (Test Example 4); details: seventh day
Protocol: as §1, §2, §3, §4, §5, §6, §7
(§8) An acetone solution of compound (1b) and an acetone solution of metalaxyl were mixed so as to prepare mixed liquids containing compound (1b) and metalaxyl in predetermined concentration. These mixed liquids were adhered on the surface of cucumber (Sagamihanjiro) seeds so as to obtain treated seeds. […] They were allowed to grow in a greenhouse while irrigated and the number of non-budding seeds was checked on the seventh day after the dissemination and the incidence of disease was calculated by Equation 3. The control value was calculated by Equation 1 based on the incidence of disease. In order to calculate the control value, the incidence of disease was also determined in the case in which the plants had not been treated with the agent. […]

[5] = system: Pythium irregulare, pathogen of cucumber damping-off; test: Cucumber damping-off seed treatment test with mefenoxam (Test Example 5); details: seventh day
Protocol: as §1, §2, §3, §4, §5, §6, §7
as §8, with “mefenoxam” for “metalaxyl”

[6] = compound (1b) 0.005 g/100 kg-seed alone
[7] = tolclofos-methyl 37.5 g/ha alone

CNC(=O)C(OC)c1ccccc1COc1cc(C)ccc1C (racemic) [(1b)]
Actual control value ([1]; compound (1b) 1 g/100 kg-seed alone): 30% | Actual control value (%) ([2]; compound (1b) 150 g/ha alone): 67.2% | Actual control value ([3]; compound (1b) 9.4 g/ha alone): 30% | Actual control value ([3]; compound (1b) 37.5 g/ha alone): 45% | Actual control value [4, 6]: 25% | Actual control value [5, 6]: 25%

COCC(=O)N(c1c(C)cccc1C)[C@H](C)C(=O)OC [Mefenoxam, mefenoxam]
Actual control value ([5]; mefenoxam 0.00125 g/100 kg-seed alone): 25% | Actual control value ([5]; mefenoxam 0.005 g/100 kg-seed alone): 50%

COCC(=O)N(c1c(C)cccc1C)C(C)C(=O)OC (stereo not drawn) [Metalaxyl, metalaxyl]
Actual control value ([4]; metalaxyl 0.00125 g/100 kg-seed alone): 25% | Actual control value ([4]; metalaxyl 0.0025 g/100 kg-seed alone): 12.5%

COP(=S)(OC)Oc1c(Cl)cc(C)cc1Cl [Tolclofos-methyl, tolclofos-methyl]
Actual control value ([1]; tolclofos-methyl 10 g/100 kg-seed alone): 57% | Actual control value (%) [2, 7]: 12.4% | Actual control value (%) ([2]; tolclofos-methyl 150 g/ha alone): 43.7% | Actual control value (%) ([2]; tolclofos-methyl 600 g/ha alone): 59.3% | Actual control value [3, 7]: 30%
